Structures are written as SMILES.

The experiment addresses T1, EiCsm6 (Enterococcus italicus, UniProt E6LHV2).
T1 sequence (E6LHV2 1-430): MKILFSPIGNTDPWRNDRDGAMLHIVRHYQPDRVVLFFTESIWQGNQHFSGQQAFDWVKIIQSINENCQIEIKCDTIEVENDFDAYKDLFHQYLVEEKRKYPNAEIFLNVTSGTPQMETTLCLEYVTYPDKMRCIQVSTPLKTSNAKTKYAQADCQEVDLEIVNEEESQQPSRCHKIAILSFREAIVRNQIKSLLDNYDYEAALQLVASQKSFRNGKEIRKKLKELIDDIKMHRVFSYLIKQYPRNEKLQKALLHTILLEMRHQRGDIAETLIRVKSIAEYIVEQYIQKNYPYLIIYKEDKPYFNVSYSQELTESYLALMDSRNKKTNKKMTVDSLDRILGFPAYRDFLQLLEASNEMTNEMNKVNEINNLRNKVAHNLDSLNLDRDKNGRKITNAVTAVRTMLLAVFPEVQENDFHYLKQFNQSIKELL
Description: fluorogenic RNase Alert cleavage, initial velocities, log. Type of experiment: biochemical. The settings on record: activator; allosteric, CARF domain; 20 mM HEPES pH 7.5, 50 mM KCl.

As usually defined, the EC50 is the concentration giving half of the maximal effect. The low end stands for an effect from little substance, the high end for a need for much substance. With `Nc1ncnc2c1ncn2[C@@H]1O[C@H](CO)[C@@H](OP(=O)(O)OC[C@H]2O[C@@H](n3cnc4c(N)ncnc43)[C@H](O)[C@@H]2OP(=O)(O)OC[C@H]2O[C@@H](n3cnc4c(N)ncnc43)[C@H](O)[C@@H]2OP(=O)(O)OC[C@H]2O[C@@H](n3cnc4c(N)ncnc43)[C@H](O)[C@@H]2OP(=O)(O)OC[C@H]2O[C@@H](n3cnc4c(N)ncnc43)[C@H](O)[C@@H]2OP(=O)(O)OC[C@H]2O[C@@H](n3cnc4c(N)ncnc43)[C@@H]3OP(=O)(O)O[C@@H]32)[C@H]1O` [A6>P, 2',3'-cyclic phosphate-terminated hexaadenylate], the EC50 is around 60 nM.

Source of the values: paper doi:10.1101/153262v1 (biorxiv, 2017).
